Laboratory results reported in patent publication US11821001B2, “Cell culture medium for eukaryotic cells” (Regeneron Pharmaceuticals, Inc., priority 2019, dated 2023).

Tested on: titer of VEGFR binding protein 1
Assay: Correlation and regression of component concentration against protein titer of VEGFR binding protein 1
Format: cell-based
Settings: regression line; for protein titer versus concentration of the component in the cell culture medium: N=70, extrapolated estimation from soy hydrolysate data, FIG. 3 / FIG. 5; for protein titer versus concentration of the component in the soy hydrolysate added to the cell culture medium: N=70, enriched medium (soy hydrolysate), FIG. 2 / FIG. 4
Experimental: The impact of 5-methythioadenosine on production of a recombinant protein (VEGFR binding protein 1) was studied by investigating the protein titer (g/L) at different concentrations of 5-methythioadenosine present in the cell culture medium.
An enriched medium (soy hydrolysate) comprising 5-methythioadenosine was added to the cell culture medium.
Based on the correlation data obtained from studying the effect of 5-methythioadenosine concentrations in the enriched medium (soy hydrolysate) supplemented to the cell culture medium (Example 2, FIG. 2), an estimation as to the optimum concentration of 5-MTA in a cell culture was made.
The impact of nicotinamide on a recombinant protein (VEGFR binding protein 1) titer was also studied by investigating the protein titer (g/L) at different concentrations of nicotinamide present in the cell culture medium.
An enriched medium (soy hydrolysate) comprising nicotinamide was added to the cell culture medium at varying concentrations.
Based on the correlation data obtained from studying the effect of nicotinamide concentration in enriched medium (soy hydrolysate) supplemented to the cell culture medium (Example 4, FIG. 4), an estimation as to the optimum concentration of nicotinamide in a cell culture was made.

Compound: CSC[C@H]1O[C@@H](n2cnc3c(N)ncnc32)[C@H](O)[C@@H]1O [5-methylthioadenosine (MTA), 5-Deoxy-5′-methylthioadenosine]
- protein titer versus concentration of the component in the cell culture medium: titer can vary linearly
- protein titer versus concentration of the component in the soy hydrolysate added to the cell culture medium: titer varied linearly

Compound: NC(=O)c1cccnc1 [Nicotinamide, 3-Pyridinecarboxamide]
- protein titer versus concentration of the component in the cell culture medium: titer can vary linearly
- protein titer versus concentration of the component in the soy hydrolysate added to the cell culture medium: titer varied linearly
